Test results from ChEMBL document CHEMBL1144470, “Occurrence of the alpha-glucosidase inhibitor 1,4-Dideoxy-1,4-imino-D-arabinitol and related iminopentitols in marine sponges” (J Nat Prod, 2007).
≈ marks a conversion by molar mass, not a printed value.

Assay: Inhibition of yeast alpha-glucosidase
Parameters: species or system Saccharomyces cerevisiae

IC50: 0.16 µg/mL (≈ 1.2 µM)
Compound: OC[C@H]1NC[C@@H](O)[C@@H]1O
